Reference: PMC5823691 (Journal of medicinal chemistry, 2017)
Converted amounts (≈) assume the structure as drawn.

How the values were obtained:
[1] = test system: Mac-1 (αMβ2)–CD40L interaction; test: cell-free Mac-1–CD40L binding inhibition assay; design: species or system human; conditions: compared with CD40–CD40L activity; Figure S1
water solubility = assay type: physicochemical; conditions: distilled water, Estimated water solubility, saturated solution
[2] = test system: Salmonella typhimurium TA-100; test: Muta-Chromplate mutagenicity assay; conditions: S. typhimurium TA-100; concentrations tested of up to 500 µM; Figure S4
[3] = test system: Balb/c skin allografts in C57BL/6 mice; conditions: two week treatment, 30 mg/kg daily s.c. in 20% HPβCD
[4] = test system: THP-1 human myeloid cells; conditions: THP-1 cells, 0.5 µg/mL MegaCD40L, 48 h; Figure S2
[5] = test system: THP-1 human myeloid cells; test: MTT cytotoxicity assay; assay type: cell-based; conditions: THP-1 cells, 48 h; concentrations of up to 100 and 200 µM; Figure S3
[6] = biological target: human CD40–CD40L interaction (Homo sapiens, UniProt P29965)
Sequence of human CD40–CD40L interaction (P29965 113-261 limits assumed): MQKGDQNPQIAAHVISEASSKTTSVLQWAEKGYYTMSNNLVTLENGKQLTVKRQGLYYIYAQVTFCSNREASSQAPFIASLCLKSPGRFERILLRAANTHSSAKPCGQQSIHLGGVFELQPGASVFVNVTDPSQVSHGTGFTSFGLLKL

Question: For `Nc1ccc(C(=O)Nc2ccc(-c3ccc(C(=O)Nc4cccc5cccc(S(=O)(=O)O)c45)cc3)cc2)cc1` [Compound 8, 8-(4’-(4-Aminobenzamido)biphenyl-4-ylcarboxamido)naphthalene-1-sulfonic acid], which “increase of inhibitory potency in Mac-1–CD40L assay” value [1] is on record?
Answer: Its value is “about 10 fold”.

Question: For `COC(=O)c1ccc(C(=O)Nc2ccc(-c3ccc(C(=O)Nc4cccc5cccc(S(=O)(=O)O)c45)cc3)cc2)cc1` [Compound 10, 8-(4’-(4-(Methoxycarbonyl)benzamido)biphenyl-4-ylcarboxamido)naphthalene-1-sulfonic acid], which solubility (water solubility) is on record?
Answer: The solubility was 164 µg/mL (≈ 282 µM).

Question: And the “genotoxic potential (Ames test)” value [2]?
Answer: The value was “neither of these compounds was found to have genotoxic potential”.

Question: What about the “toxicity during chronic treatment” value [3] of the same molecule?
Answer: The value was “no signs of toxicity”.

Question: What about the “effect on CD40L-induced MHC-II upregulation” value (“effect” below) [4] of the same molecule?
Answer: The value was “concentration-dependently inhibited”.

Question: For `O=C(Nc1ccc(-c2ccc(C(=O)Nc3ccc(C(=O)O)c4ccccc34)cc2)cc1)c1ccc([N+](=O)[O-])cc1` [Compound 11, 4-(4’-(4-Nitrobenzamido)biphenyl-4-ylcarboxamido)-1-naphthoic acid], which “cytotoxicity (MTT, viability)” value [5] is on record?
Answer: Its value is “significant effect on viability at 100 µM”.

Question: What about the “effect” value [4] of the same molecule?
Answer: Its value is “concentration-dependently inhibited”.

Question: Which “CD40 IC50” value ([6]; cell-free, soluble CD40L binding to plate-coated CD40, Hill slope 1 fit) does the source give for `CSCC[C@H](NC(=O)[C@@H](NC(=O)[C@H](Cc1ccc(O)cc1)NC(=O)[C@H](Cc1ccc(O)cc1)NC(=O)CNC(=O)[C@H](CCCCN)NC(=O)[C@H](CCCCN)NC(=O)[C@H](C)NC(=O)[C@H](Cc1c[nH]c2ccccc12)NC(=O)[C@H](CCC(N)=O)NC(=O)[C@H](CC(C)C)NC(=O)[C@@H](N)C(C)C)[C@@H](C)O)C(=O)N[C@@H](CCCCN)C(=O)N[C@@H](CO)C(=O)N[C@@H](CC(N)=O)C(=O)O` [mouse KGYY15] here?
Answer: The value was “no inhibitory activity”.

Question: For `O=C(Nc1ccc2c(O)c(/N=N/c3ccc(N=Nc4ccc(S(=O)(=O)O)cc4)cc3S(=O)(=O)O)c(S(=O)(=O)O)cc2c1)Nc1ccc2c(O)c(/N=N/c3ccc(N=Nc4ccc(S(=O)(=O)O)cc4)cc3S(=O)(=O)O)c(S(=O)(=O)O)cc2c1` (stereo in doubt) [Compound 1, direct red 80, reference compound], which “increase of inhibitory potency in Mac-1–CD40L assay” value [1] is on record?
Answer: Its value is “about 10 fold”.

Question: What about the “ligand efficiency (LE)” value ([6]; binding free energy per non-hydrogen atom) of the same molecule?
Answer: The value was 0.4 kJ/atom.

Question: For `O=C(Nc1ccc(-c2ccc(C(=O)Nc3cccc4cccc(S(=O)(=O)O)c34)cc2)cc1)c1ccc([N+](=O)[O-])cc1` [Compound 6, 8-(4’-(4-Nitrobenzamido)biphenyl-4-ylcarboxamido)naphthalene-1-sulfonic acid], which “genotoxic potential (Ames test)” value [2] is on record?
Answer: Its value is “neither of these compounds was found to have genotoxic potential”.

Question: What about the “effect” value [4] of the same molecule?
Answer: Its value is “concentration-dependently inhibited”.
